This data set can be described thus: activity coefficient (dimensionless); of the first substance listed, at infinite dilution; xn = mol fraction of the nth substance listed. As to conditions: 101.33 kPa, Liquid, Chromatography, x1 = 0.

± gives the expanded uncertainty stated by the source.

On to `Cc1cccc(C)c1` [1,3-dimethylbenzene] + CCCCC(CC)CN(CC(CC)CCCC)C(=O)C(C)C, for which the activity coefficient by setting is: (323.15 K) 11.8 ± 1.2; (333.15 K) 9.28 ± 0.98; (343.15 K) 7.2 ± 0.76; (353.15 K) 5.33 ± 0.56; (363.15 K) 4.13 ± 0.43; (373.15 K) 3.14 ± 0.33.
In the case of `Cc1ccc(C)cc1` [1,4-dimethylbenzene] + CCCCC(CC)CN(CC(CC)CCCC)C(=O)C(C)C, the activity coefficient is, setting by setting: (323.15 K) 11.6 ± 1.2; (333.15 K) 9.01 ± 0.95; (343.15 K) 6.9 ± 0.73; (353.15 K) 5.2 ± 0.55; (363.15 K) 3.75 ± 0.4; (373.15 K) 2.89 ± 0.3.
As to `C=CCCCCCCCC` [1-decene] + CCCCC(CC)CN(CC(CC)CCCC)C(=O)C(C)C, the activity coefficient was determined as 24.3 ± 2.6 (323.15 K); 19.4 ± 2 (333.15 K); 16.8 ± 1.8 (343.15 K); 14 ± 1.5 (353.15 K); 11.1 ± 1.2 (363.15 K); 9.87 ± 1 (373.15 K).
For `C=CCCCCC` [1-heptene] + CCCCC(CC)CN(CC(CC)CCCC)C(=O)C(C)C, the activity coefficient amounted to 4.02 ± 0.42 (323.15 K); 2.89 ± 0.3 (333.15 K); 2.31 ± 0.24 (343.15 K); 1.8 ± 0.19 (353.15 K); 1.25 ± 0.13 (363.15 K); 0.974 ± 0.099 (373.15 K).
As to `CC(C)CC(C)(C)C` [2,2,4-trimethylpentane] + CCCCC(CC)CN(CC(CC)CCCC)C(=O)C(C)C, the activity coefficient is 4.26 ± 0.45 (323.15 K); 3.33 ± 0.35 (333.15 K); 2.6 ± 0.27 (343.15 K); 2.09 ± 0.22 (353.15 K); 1.74 ± 0.18 (363.15 K); 1.29 ± 0.13 (373.15 K).
In the case of `CCCCCC(C)=O` [2-heptanone] + CCCCC(CC)CN(CC(CC)CCCC)C(=O)C(C)C, the activity coefficient is, setting by setting: (323.15 K) 13.8 ± 1.4; (333.15 K) 10.6 ± 1.1; (343.15 K) 8.16 ± 0.86; (353.15 K) 6.2 ± 0.65; (363.15 K) 5 ± 0.53; (373.15 K) 4.04 ± 0.42.
Take `CCCC(C)C` [2-methylpentane] + CCCCC(CC)CN(CC(CC)CCCC)C(=O)C(C)C: the activity coefficient is, setting by setting: (323.15 K) 1.11 ± 0.11; (333.15 K) 0.938 ± 0.096; (343.15 K) 0.768 ± 0.079; (353.15 K) 0.639 ± 0.067; (363.15 K) 0.525 ± 0.057; (373.15 K) 0.428 ± 0.049.
`CCCC(=O)CC` [3-hexanone] + CCCCC(CC)CN(CC(CC)CCCC)C(=O)C(C)C: the activity coefficient runs as follows: (323.15 K) 8.64 ± 0.91; (333.15 K) 6.42 ± 0.68; (343.15 K) 4.88 ± 0.51; (353.15 K) 3.74 ± 0.39; (363.15 K) 2.86 ± 0.3; (373.15 K) 2.15 ± 0.23.
For `CC(C)=O` [acetone] + CCCCC(CC)CN(CC(CC)CCCC)C(=O)C(C)C, the activity coefficient by setting is: (323.15 K) 0.901 ± 0.092; (333.15 K) 0.745 ± 0.077; (343.15 K) 0.596 ± 0.064; (353.15 K) 0.465 ± 0.052; (363.15 K) 0.375 ± 0.045; (373.15 K) 0.294 ± 0.039.
On to `CC#N` [acetonitrile] + CCCCC(CC)CN(CC(CC)CCCC)C(=O)C(C)C, for which the activity coefficient reads like this: (323.15 K) 1.47 ± 0.15; (333.15 K) 1.21 ± 0.12; (343.15 K) 1.03 ± 0.1; (353.15 K) 0.861 ± 0.088; (363.15 K) 0.718 ± 0.075; (373.15 K) 0.568 ± 0.061.
For the molecule `c1ccccc1` [benzene] + CCCCC(CC)CN(CC(CC)CCCC)C(=O)C(C)C, the activity coefficient is, setting by setting: (323.15 K) 2.56 ± 0.27; (333.15 K) 2 ± 0.21; (343.15 K) 1.65 ± 0.17; (353.15 K) 1.37 ± 0.14; (363.15 K) 1.15 ± 0.12; (373.15 K) 0.954 ± 0.097.
Take `CCCCc1ccccc1` [butylbenzene] + CCCCC(CC)CN(CC(CC)CCCC)C(=O)C(C)C: the activity coefficient (323.15 K) came to 24.4 ± 2.6; the activity coefficient (333.15 K) came to 20.7 ± 2.2; the activity coefficient (343.15 K) was 17.5 ± 1.8; the activity coefficient (353.15 K) came to 15 ± 1.6; the activity coefficient (363.15 K) worked out at 12.5 ± 1.3; the activity coefficient (373.15 K) was 10.6 ± 1.1.
On to `C1CCCCC1` [cyclohexane] + CCCCC(CC)CN(CC(CC)CCCC)C(=O)C(C)C, for which the activity coefficient (323.15 K) worked out at 2.77 ± 0.29; the activity coefficient (333.15 K) was 2.15 ± 0.23; the activity coefficient (343.15 K) stood at 1.74 ± 0.18; the activity coefficient (353.15 K) worked out at 1.41 ± 0.15; the activity coefficient (363.15 K) is 1.18 ± 0.12; the activity coefficient (373.15 K) came to 0.966 ± 0.098.
On to `CCCCCCCCCC` [decane] + CCCCC(CC)CN(CC(CC)CCCC)C(=O)C(C)C, for which the activity coefficient is 26.4 ± 2.8 (323.15 K); 22.7 ± 2.4 (333.15 K); 18.3 ± 1.9 (343.15 K); 15.2 ± 1.6 (353.15 K); 12.2 ± 1.3 (363.15 K); 9.89 ± 1 (373.15 K).
Regarding `ClCCl` [dichloromethane] + CCCCC(CC)CN(CC(CC)CCCC)C(=O)C(C)C, the activity coefficient (323.15 K) turned out to be 0.608 ± 0.065; the activity coefficient (333.15 K) is 0.506 ± 0.056; the activity coefficient (343.15 K) was 0.41 ± 0.048; the activity coefficient (353.15 K) amounted to 0.339 ± 0.042; the activity coefficient (363.15 K) came to 0.273 ± 0.037; the activity coefficient (373.15 K) was found to be 0.225 ± 0.034.
On to `CCOC(C)=O` [ethyl acetate] + CCCCC(CC)CN(CC(CC)CCCC)C(=O)C(C)C, for which the activity coefficient (323.15 K) worked out at 1.43 ± 0.15; the activity coefficient (333.15 K) turned out to be 1.22 ± 0.12; the activity coefficient (343.15 K) amounted to 0.985 ± 0.1; the activity coefficient (353.15 K) was 0.87 ± 0.089; the activity coefficient (363.15 K) worked out at 0.7 ± 0.073; the activity coefficient (373.15 K) amounted to 0.566 ± 0.061.
Take `CCc1ccccc1` [ethylbenzene] + CCCCC(CC)CN(CC(CC)CCCC)C(=O)C(C)C: the activity coefficient reads like this: (323.15 K) 11.3 ± 1.2; (333.15 K) 8.75 ± 0.92; (343.15 K) 6.78 ± 0.71; (353.15 K) 4.96 ± 0.52; (363.15 K) 3.9 ± 0.41; (373.15 K) 2.88 ± 0.3.
For the molecule `CCCCCCC` [heptane] + CCCCC(CC)CN(CC(CC)CCCC)C(=O)C(C)C, the activity coefficient by setting is: (323.15 K) 4.37 ± 0.46; (333.15 K) 3.49 ± 0.37; (343.15 K) 2.78 ± 0.29; (353.15 K) 2.32 ± 0.24; (363.15 K) 2.02 ± 0.21; (373.15 K) 1.71 ± 0.18.
Take `C=CCCCC` [hex-1-ene] + CCCCC(CC)CN(CC(CC)CCCC)C(=O)C(C)C: the activity coefficient (323.15 K) is 1.77 ± 0.18; the activity coefficient (333.15 K) turned out to be 1.37 ± 0.14; the activity coefficient (343.15 K) was 1.17 ± 0.12; the activity coefficient (353.15 K) stood at 0.957 ± 0.097; the activity coefficient (363.15 K) amounted to 0.789 ± 0.081; the activity coefficient (373.15 K) came to 0.678 ± 0.071.
On to `CCCCCC` [hexane] + CCCCC(CC)CN(CC(CC)CCCC)C(=O)C(C)C, for which the activity coefficient reads like this: (323.15 K) 1.91 ± 0.2; (333.15 K) 1.53 ± 0.16; (343.15 K) 1.26 ± 0.13; (353.15 K) 1.02 ± 0.1; (363.15 K) 0.845 ± 0.087; (373.15 K) 0.717 ± 0.075.
For `C=O` [methanal] + CCCCC(CC)CN(CC(CC)CCCC)C(=O)C(C)C, the activity coefficient stood at 0.056 (323.15 K); 0.052 (333.15 K); 0.048 (343.15 K); 0.044 (353.15 K); 0.041 (363.15 K); 0.037 (373.15 K).
For the molecule `CCCCCCCCC` [nonane] + CCCCC(CC)CN(CC(CC)CCCC)C(=O)C(C)C, the activity coefficient was 18.5 ± 1.9 (323.15 K); 16 ± 1.7 (333.15 K); 13.7 ± 1.4 (343.15 K); 11.8 ± 1.2 (353.15 K); 9.8 ± 1 (363.15 K); 8.67 ± 0.91 (373.15 K).
In the case of `C=CCCCCCC` [oct-1-ene] + CCCCC(CC)CN(CC(CC)CCCC)C(=O)C(C)C, the activity coefficient reads like this: (323.15 K) 7.52 ± 0.79; (333.15 K) 6.09 ± 0.64; (343.15 K) 4.86 ± 0.51; (353.15 K) 3.76 ± 0.4; (363.15 K) 2.94 ± 0.31; (373.15 K) 2.21 ± 0.23.
As for `CCCCCCCC` [octane] + CCCCC(CC)CN(CC(CC)CCCC)C(=O)C(C)C, the activity coefficient (323.15 K) stood at 11.9 ± 1.3; the activity coefficient (333.15 K) was found to be 8.35 ± 0.88; the activity coefficient (343.15 K) was determined as 6.04 ± 0.64; the activity coefficient (353.15 K) was 4.54 ± 0.48; the activity coefficient (363.15 K) amounted to 3.36 ± 0.35; the activity coefficient (373.15 K) came to 2.63 ± 0.28.
On to `CCCCC` [pentane] + CCCCC(CC)CN(CC(CC)CCCC)C(=O)C(C)C, for which the activity coefficient was found to be 0.795 ± 0.082 (323.15 K); 0.676 ± 0.071 (333.15 K); 0.544 ± 0.059 (343.15 K); 0.457 ± 0.051 (353.15 K); 0.382 ± 0.045 (363.15 K); 0.324 ± 0.041 (373.15 K).
On to `CCCc1ccccc1` [propylbenzene] + CCCCC(CC)CN(CC(CC)CCCC)C(=O)C(C)C, for which the activity coefficient is 17.8 ± 1.9 (323.15 K); 14.7 ± 1.6 (333.15 K); 11.5 ± 1.2 (343.15 K); 9.18 ± 0.97 (353.15 K); 7.33 ± 0.77 (363.15 K); 5.72 ± 0.6 (373.15 K).
For the molecule `ClC(Cl)(Cl)Cl` [tetrachloromethane] + CCCCC(CC)CN(CC(CC)CCCC)C(=O)C(C)C, the activity coefficient (323.15 K) was 1.94 ± 0.2; the activity coefficient (333.15 K) worked out at 1.6 ± 0.17; the activity coefficient (343.15 K) turned out to be 1.22 ± 0.13; the activity coefficient (353.15 K) was found to be 0.935 ± 0.095; the activity coefficient (363.15 K) is 0.727 ± 0.076; the activity coefficient (373.15 K) came out at 0.581 ± 0.062.
Regarding `Cc1ccccc1` [toluene] + CCCCC(CC)CN(CC(CC)CCCC)C(=O)C(C)C, the activity coefficient stood at 5.11 ± 0.54 (323.15 K); 4.25 ± 0.45 (333.15 K); 3.25 ± 0.34 (343.15 K); 2.5 ± 0.26 (353.15 K); 1.88 ± 0.2 (363.15 K); 1.46 ± 0.15 (373.15 K).

Source of the values: the NIST ThermoML archive (doi:10.1021/acs.jced.8b00635).
